We go through 36 compounds from patent US9663516B2, “Bicyclic-pyrimidinedione compounds” (MyoKardia, Inc., priority 2014, dated 2017).

Assay [1] concerns adult rat ventricular myocytes. Nature of the assay: Cardiomyocyte contractility assay (fractional shortening, IonOptix edge detection). It counts as cell-based. Conditions: 1 Hz pacing; for inhibition at 0.3 µM / inhibition at 1 µM / inhibition at 0.1 µM: Ventricular myocyte; for inhibition at 1 µM: 1.0 μM compound; for inhibition at 0.1 µM: 0.1 μM compound. On the procedure: Contractility of adult rat ventricular myocytes is determined by edge detection with an IonOptix contractility system. Aliquots of myocytes in Tyrode buffer (137 mM NaCl, 3.7 mM KCL, 0.5 mM MgCl2, 1.5 mM CaCl2, 4 mM HEPES, 11 mM glucose) are placed in a perfusion chamber (Series 20 RC-27NE; Warner Instruments), allowed to adhere to the coverslip, and then perfused with 37° C. Tyrode buffer. Myocytes are filed stimulated at 1 Hz and 10V. Only myocytes with clear striations, quiescent prior to pacing, with a cell length of 120-180 microns, a basal fractional shortening equal to 3-8% of the cell length, and a contraction velocity greater than 100 microns per second are used for contractility experiments. To determine the response to compounds, myocytes are first perfused for 60 seconds with Tyrodes buffer followed by 5 minutes of compound and a 140 second washout with Tyrodes buffer. Data is continuously recorded using IonOptix software. Contractility data is analyzed using Ionwizard software (IonOptix). For each cell, 10-20 contractility transients were averaged and compared under basal (no compound) and compound-treated conditions. Compound activity is measured by effects on fractional shortening (FS), where fractional shortening is the ratio of the peak length of the cell at contraction divided by the basal cell length normalized to 100% for an untreated cell.

Assay [2] deals with bovine cardiac myosin (Bos taurus, UniProt Q9BE39). The assay is described as follows: Myosin inhibition assay (PK/LDH-coupled ATPase, bovine cardiac myofibrils). It counts as biochemical. As to conditions: calcium concentration giving 50% activation, pH 6.8, read-out: bcMF pCa_6 IC50. On the procedure:
Small molecule agents were assessed for their ability to inhibit the enzymatic activity of bovine cardiac myosin using a biochemical assay that couples the release of ADP (adenosine diphosphate) from cardiac myosin to an enzymatic coupling system consisting of pyruvate kinase and lactate dehydrogenase (PK/LDH) and monitoring the absorbance decrease of NADH (at 340 nm) as a function of time. PK converts ADP to ATP (adenosine triphosphate) by converting PEP (phosphoenolpyruvate) to pyruvate. Pyruvate is then converted to lactate by LDH by converting NADH (nicotinamide adenine dinucleotide) to NAD (oxidized nicotinamide adenine dinucleotide). […] Prior to testing small molecule agents, the bovine myofibrils were assessed for their calcium responsiveness and the calcium concentration that achieves a 50% activation of the myofibril system was chosen as the final condition for assessing the inhibitory activity of the small molecule agents. All enzymatic activity was measured in a buffered solution containing 12 mM PIPES (piperazine-N,N′-bis(2-ethanesulfonic acid), 2 mM magnesium chloride at pH 6.8 (PM12 buffer). Final assay conditions were 1 mg/mL of bovine cardiac myofibrils, 0.4 mM PK/LDH, 50 uM ATP, 0.1 mg/mL BSA (bovine serum albumin), 10 ppm antifoam, 2 mM BME, 0.5 mM NADH, 1.5 mM PEP at the desired free calcium concentration required to achieve 50% activation of the myofibrils.
A dilution series of compound was created in DMSO such that the final desired concentration of compound would be achieved in a volume of 30 μL with a fixed DMSO concentration of 3.3% (v/v). Typically 1 μL of the dilution series were added to 384 well plate to achieve an 10 point dose response. Following the addition of 14 μL of a solution containing bovine cardiac myofibrils, PK/LDH and a solution of calcium (that achieved 50% activation), the enzymatic reaction was started with the addition of 15 μL of a solution containing ATP, PEP and NADH. The reaction progress was followed in a PerkinElmer Envision plate reader at ambient temperature using clear bottom plates. The plate reader was configured to read absorbance at 340 nm in kinetics mode for 15 minutes. Data were recorded as the slope of the absorbance response to time. The slopes of the absorbance response as a function of time were normalized to slopes on the plate containing DMSO. This normalized rate was then plotted as a function of small molecule concentration and the data was fitted to a four-parameter fit using EXCEL XLfit. The IC50 is the concentration at which fifty percent of the total response is inhibited.

Bounds are passed on as bounds.

As usually defined, the inhibition is how much of the control response was suppressed. Lower therefore signals a weak effect. By IC50 is commonly meant the point on the concentration scale where inhibition reaches its midpoint.

Sequence of bovine cardiac myosin (Q9BE39 whole entry): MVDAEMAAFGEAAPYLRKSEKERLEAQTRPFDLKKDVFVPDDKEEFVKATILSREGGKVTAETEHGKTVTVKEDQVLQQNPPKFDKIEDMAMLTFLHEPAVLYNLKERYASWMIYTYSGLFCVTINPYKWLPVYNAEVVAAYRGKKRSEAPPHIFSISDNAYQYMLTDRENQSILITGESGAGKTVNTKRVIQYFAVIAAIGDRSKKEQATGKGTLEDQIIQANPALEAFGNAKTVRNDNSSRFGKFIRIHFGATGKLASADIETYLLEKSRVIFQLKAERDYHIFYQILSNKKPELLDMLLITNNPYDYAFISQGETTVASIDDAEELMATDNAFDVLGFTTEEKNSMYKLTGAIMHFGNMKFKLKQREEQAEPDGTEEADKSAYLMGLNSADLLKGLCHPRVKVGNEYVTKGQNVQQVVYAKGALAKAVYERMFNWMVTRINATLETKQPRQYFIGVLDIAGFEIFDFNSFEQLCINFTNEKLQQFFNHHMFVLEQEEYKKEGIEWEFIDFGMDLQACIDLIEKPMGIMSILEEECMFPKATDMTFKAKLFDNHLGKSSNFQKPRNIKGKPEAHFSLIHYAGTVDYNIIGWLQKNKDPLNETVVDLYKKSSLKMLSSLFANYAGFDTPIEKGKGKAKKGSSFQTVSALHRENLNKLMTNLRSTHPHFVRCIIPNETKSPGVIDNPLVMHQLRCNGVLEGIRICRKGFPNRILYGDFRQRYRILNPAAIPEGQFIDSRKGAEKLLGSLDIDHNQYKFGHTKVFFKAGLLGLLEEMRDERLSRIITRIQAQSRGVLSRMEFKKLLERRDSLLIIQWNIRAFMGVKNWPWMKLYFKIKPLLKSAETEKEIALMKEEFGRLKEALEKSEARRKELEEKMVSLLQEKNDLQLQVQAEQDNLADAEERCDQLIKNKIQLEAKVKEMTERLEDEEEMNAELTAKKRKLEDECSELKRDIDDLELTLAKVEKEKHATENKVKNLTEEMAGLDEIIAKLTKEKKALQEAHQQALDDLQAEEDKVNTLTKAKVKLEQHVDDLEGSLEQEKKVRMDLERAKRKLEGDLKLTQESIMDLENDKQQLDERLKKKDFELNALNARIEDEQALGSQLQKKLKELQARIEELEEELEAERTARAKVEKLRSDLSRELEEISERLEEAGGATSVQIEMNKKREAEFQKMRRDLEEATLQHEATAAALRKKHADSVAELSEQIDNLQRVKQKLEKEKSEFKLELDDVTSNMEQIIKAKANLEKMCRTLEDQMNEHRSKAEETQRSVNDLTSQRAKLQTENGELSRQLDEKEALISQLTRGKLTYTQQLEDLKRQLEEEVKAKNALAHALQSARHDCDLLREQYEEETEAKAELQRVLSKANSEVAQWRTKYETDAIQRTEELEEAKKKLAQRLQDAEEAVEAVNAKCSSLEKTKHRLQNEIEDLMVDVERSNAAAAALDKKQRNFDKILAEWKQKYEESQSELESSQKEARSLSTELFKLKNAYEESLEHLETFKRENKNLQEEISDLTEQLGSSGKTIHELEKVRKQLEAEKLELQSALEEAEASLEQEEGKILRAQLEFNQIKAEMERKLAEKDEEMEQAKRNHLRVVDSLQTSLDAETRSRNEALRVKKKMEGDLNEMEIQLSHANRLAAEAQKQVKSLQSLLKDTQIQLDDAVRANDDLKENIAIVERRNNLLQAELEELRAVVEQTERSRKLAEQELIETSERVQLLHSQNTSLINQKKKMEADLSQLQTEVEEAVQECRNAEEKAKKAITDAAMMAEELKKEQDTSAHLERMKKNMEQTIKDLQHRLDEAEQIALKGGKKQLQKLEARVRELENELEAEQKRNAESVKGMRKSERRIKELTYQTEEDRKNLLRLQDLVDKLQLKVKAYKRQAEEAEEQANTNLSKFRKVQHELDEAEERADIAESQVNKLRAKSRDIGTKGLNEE
Sequence of bovine cardiac myosin (P85100 whole entry partner): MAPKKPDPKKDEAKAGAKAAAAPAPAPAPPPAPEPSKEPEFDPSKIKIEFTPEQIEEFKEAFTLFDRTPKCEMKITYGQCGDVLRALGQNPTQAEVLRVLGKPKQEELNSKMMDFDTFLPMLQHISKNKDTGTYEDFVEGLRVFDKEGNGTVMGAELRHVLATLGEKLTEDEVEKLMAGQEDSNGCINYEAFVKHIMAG
Sequence of bovine cardiac myosin (Q3SZE5 whole entry partner): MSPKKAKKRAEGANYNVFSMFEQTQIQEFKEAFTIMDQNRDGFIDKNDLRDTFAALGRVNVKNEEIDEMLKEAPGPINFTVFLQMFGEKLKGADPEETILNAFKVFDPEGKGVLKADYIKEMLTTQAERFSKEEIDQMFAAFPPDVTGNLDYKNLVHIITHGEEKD

Consider `O=c1[nH]c2c(c(=O)n1-c1cc(F)cc(F)c1)CC[C@H](C1CCC(F)(F)CC1)N2` [Compound 2, (R)-7-(4,4-Difluorocyclohexyl)-3-(3,5-difluorophenyl)-5,6,7,8-tetrahydropyrido[2,3-d]pyrimidine-2,4(1H,3H)-dione], for which, in assay [1] (0.3 μM compound), the inhibition at 0.3 µM is below 33%. Besides, the inhibition at 1 µM in assay [1] was above 66%. For the same compound, the IC50 in assay [2] was below 1000 nM.

As to `CC(C)n1c(=O)[nH]c2c(c1=O)CC[C@H](c1ccc(F)c(F)c1)N2` [Compound 4, (7R)-7-(3,4-difluorophenyl)-3-isopropyl-5,6,7,8-tetrahydropyrido[2,3-d]pyrimidine-2,4(1H,3H)-dione], in assay [1], the inhibition at 0.1 µM is below 33%. For the same compound, the inhibition at 0.3 µM in assay [1] (0.3 μM compound) is 33 to 66%. Also, the IC50 in assay [2] lay within 1000 to 15000 nM. With `CC(C)n1c(=O)[nH]c2c(c1=O)CC[C@H](c1ccc(F)cc1F)N2` [Compound 6, (R)-7-(2,4-Difluorophenyl)-3-isopropyl-5,6,7,8-tetrahydropyrido[2,3-d]pyrimidine-2,4(1H,3H)-dione], in assay [1] (0.3 μM compound), the inhibition at 0.3 µM was in the range of 33 to 66%. The inhibition at 1 µM in assay [1] was above 66%. Also, in assay [2], the half-maximal inhibitory concentration (IC50) was below 1000 nM. For the compound `CCn1c(=O)[nH]c2c(c1=O)CC[C@H](c1ccc(F)c(F)c1)N2` [Compound 9, (R)-7-(3,4-Difluorophenyl)-3-ethyl-5,6,7,8-tetrahydropyrido[2,3-d]pyrimidine-2,4(1H,3H)-dione], the inhibition at 1 µM in assay [1] was in the range of 33 to 66%. The IC50 in assay [2] was in the range of 1000 to 15000 nM. Compound `CCn1c(=O)[nH]c2c(c1=O)CC[C@H](c1ccccc1F)N2` [Compound 14] returned an inhibition at 0.3 µM in assay [1] (0.3 μM compound) below 33%. The compound also registered an inhibition at 1 µM in assay [1] above 66%. Further, the IC50 in assay [2] fell in the range of 1000 to 15000 nM.

Take `CC[C@H](C)n1c(=O)[nH]c2c(c1=O)CC[C@H](c1ccc(F)c(F)c1)N2` [Compound 18]: the inhibition at 0.3 µM in assay [1] (0.3 μM compound) lay in the range of 33 to 66%. Also, in assay [2], the IC50 was 1000 to 15000 nM.

For `CCn1c(=O)[nH]c2c(c1=O)CC[C@H](c1ccc(F)cc1)N2` [Compound 20], the inhibition at 1 µM in assay [1] is 33 to 66%. Also, the IC50 in assay [2] is 1000 to 15000 nM.

In turn, `O=c1[nH]c2c(c(=O)n1CC(F)F)CC[C@H](c1ccc(F)c(F)c1)N2` [Compound 22] displayed an inhibition at 1 µM in assay [1] of 33 to 66%. Also, in assay [2], the IC50 fell in the range of 1000 to 15000 nM. Turning to `O=c1[nH]c2c(c(=O)n1C1CCC1)CC[C@H](C1CCC(F)(F)CC1)N2` [Compound 31], the inhibition at 0.3 µM in assay [1] (0.3 μM compound) was in the range of 33 to 66%. Further, in assay [2], the IC50 is below 1000 nM. Compound `CC(C)n1c(=O)[nH]c2c(c1=O)CC[C@H](C1CCC(F)(F)CC1)N2` [Compound 46] came in with an inhibition at 1 µM in assay [1] above 66%. In assay [2], the concentration for half-maximal inhibition (IC50) was below 1000 nM. Compound `O=c1[nH]c2c(c(=O)n1-c1ccccc1)CC[C@H](c1ccc(F)c(F)c1)N2` [Compound 48] showed an inhibition at 0.3 µM in assay [1] (0.3 μM compound) below 33%. In addition, in assay [1], the inhibition at 1 µM was below 33%. Moreover, the IC50 in assay [2] was 1000 to 15000 nM. In assay [1], `CCn1c(=O)[nH]c2c(c1=O)CC[C@H](C1CCC(F)(F)CC1)N2` [Compound 53] returned an inhibition at 1 µM of 33 to 66%. For the same compound, the IC50 in assay [2] lay in the range of 1000 to 15000 nM. In the case of `CC(C)n1c(=O)[nH]c2c(c1=O)CC[C@H](c1ccc(F)cc1)N2` [Compound 67], in assay [1] (0.3 μM compound), the inhibition at 0.3 µM lay in the range of 33 to 66%. In addition, the IC50 in assay [2] was 1000 to 15000 nM.

Consider `CC(C)n1c(=O)[nH]c2c(c1=O)CC[C@H](c1cccc(F)c1)N2` [Compound 68, (R)-7-(3-Fluorophenyl)-3-isopropyl-5,6,7,8-tetrahydropyrido[2,3-d]pyrimidine-2,4(1H,3/H)-dione], for which the inhibition at 0.1 µM in assay [1] was above 66%. Besides, the IC50 in assay [2] was 1000 to 15000 nM. On the same counts, the results for `CC(C)n1c(=O)[nH]c2c(c1=O)CC[C@H](c1ccccc1F)N2` [Compound 69, (R)-7-(2-Fluorophenyl)-3-isopropyl-5,6,7,8-tetrahydropyrido[2,3-d]pyrimidine-2,4(1H,3H)-dione] are above 66% and 1000 to 15000 nM.

Compound `O=c1[nH]c2c(c(=O)n1CC(F)(F)F)CC[C@H](c1ccc(F)c(F)c1)N2` [Compound 70] had an inhibition at 1 µM in assay [1] of 33 to 66%. For the same compound, the IC50 in assay [2] lay in the range of 1000 to 15000 nM. The like results for `CC1(n2c(=O)[nH]c3c(c2=O)CC[C@H](c2ccc(F)c(F)c2)N3)CC1` [Compound 81] were, in that order, 33 to 66% and 1000 to 15000 nM.

Compound `CC[C@@H](C)n1c(=O)[nH]c2c(c1=O)CC[C@H](c1ccc(F)c(F)c1)N2` [Compound 83] came in with an inhibition at 0.3 µM in assay [1] (0.3 μM compound) of 33 to 66%. For the same compound, in assay [2], the IC50 is below 1000 nM.

`CC(C)n1c(=O)[nH]c2c(c1=O)CC[C@](C)(c1ccccc1)N2` [Compound 106]: in assay [1], the inhibition at 0.1 µM was above 66%. Further, the IC50 in assay [2] was below 1000 nM. The compound `CC(C)n1c(=O)[nH]c2c(c1=O)CC(F)(F)[C@H](c1ccccc1)N2` [Compound 116, (S)-6,6-Difluoro-3-isopropyl-7-phenyl-5,6,7,8-tetrahydropyrido[2,3-d]pyrimidine-2,4(1H,3H)-dione] had an inhibition at 0.3 µM in assay [1] (0.3 μM compound) of 33 to 66%. In assay [1], this compound displayed an inhibition at 1 µM above 66%. In assay [2], the IC50 lay in the range of 1000 to 15000 nM.

For `CCn1c(=O)[nH]c2c(c1=O)CC[C@@](c1ccccc1)(C(C)C)N2` [Compound 132], in assay [2], the IC50 is above 15000 nM.

As for `CCC[C@]1(c2ccccc2)CCc2c([nH]c(=O)n(CC)c2=O)N1` [Compound 133], the IC50 in assay [2] fell in the range of 1000 to 15000 nM.

Take `C[C@]1(c2cc(F)ccc2F)CCc2c([nH]c(=O)n(C3CCC3)c2=O)N1` [Compound 134]: in assay [2], the IC50 is below 1000 nM. `C[C@]1(c2cc(F)ccc2F)CCc2c([nH]c(=O)n(-c3cc(F)cc(F)c3)c2=O)N1` [Compound 135]: the 50% inhibitory concentration (IC50) in assay [2] was below 1000 nM. In the case of `C[C@]1(c2cccc(F)c2)CCc2c([nH]c(=O)n(CC(F)F)c2=O)N1` [Compound 136], in assay [2], the IC50 was below 1000 nM.

Turning to `C[C@]1(c2cccc(F)c2)CCc2c([nH]c(=O)n(CC(F)(F)F)c2=O)N1` [Compound 137], the half-maximal inhibitory concentration (IC50) in assay [2] is below 1000 nM. Same read-out and setting: the same measure for `C[C@]1(c2cc(F)ccc2F)CCc2c([nH]c(=O)n(C3CC3)c2=O)N1` [Compound 138]: below 1000 nM; for `C[C@]1(c2ccccc2)CCc2c([nH]c(=O)n(-c3ccccc3)c2=O)N1` [Compound 139]: below 1000 nM; for `CC(C)n1c(=O)[nH]c2c(c1=O)CC(F)(F)[C@](C)(c1ccccc1)N2` [Compound 140]: 1000 to 15000 nM.

For `COC(=O)N1CCC([C@H]2CCc3c([nH]c(=O)n(C(C)C)c3=O)N2)CC1` [Compound 141], the IC50 in assay [2] fell in the range of 1000 to 15000 nM. The same measure, in the same setting: for `CCn1c(=O)[nH]c2c(c1=O)CC[C@@](c1ccccc1)(C1CCOCC1)N2` [Compound 142] the value was below 1000 nM; for `CCn1c(=O)[nH]c2c(c1=O)CC[C@](c1ccccc1)(C1CCOCC1)N2` [Compound 143], 1000 to 15000 nM; for `CCn1c(=O)[nH]c2c(c1=O)C[C@](C)(c1ccccc1)N2` [Compound 144], above 15000 nM. As to `CCn1c(=O)[nH]c2c(c1=O)CC[C@@](c1ccccc1)(C1CCC1)N2` [Compound 145], in assay [2], the IC50 was below 1000 nM. In the case of `CCn1c(=O)[nH]c2c(c1=O)CC[C@](c1ccccc1)(C1CCC1)N2` [Compound 146], the IC50 in assay [2] is above 15000 nM. Regarding “(R)-3-Isopropyl-7-phenyl-7,8-dihydropyrido[2,3-d]pyrimidine-2,4,5(1H,3H,6H)-trione [Compound 1]”, the “Activity at 0.3 μM (fractional shortening inhibition)” value in assay [1] (0.3 μM compound) is recorded as “++ (++ represents fractional shorting inhibition values from 33% to 66%)”. For the same compound, the IC50 in assay [2] lay in the range of 1000 to 15000 nM.
